Measurements published in the Kinase Knowledgebase extract (Sharma et al. 2016).

Biological target: ROCK2 (human) (UniProt O75116)
Assay: Inhibition of ROCK2 Kinase Activity

Chain of ROCK2 (human) (O75116 whole entry, looked up): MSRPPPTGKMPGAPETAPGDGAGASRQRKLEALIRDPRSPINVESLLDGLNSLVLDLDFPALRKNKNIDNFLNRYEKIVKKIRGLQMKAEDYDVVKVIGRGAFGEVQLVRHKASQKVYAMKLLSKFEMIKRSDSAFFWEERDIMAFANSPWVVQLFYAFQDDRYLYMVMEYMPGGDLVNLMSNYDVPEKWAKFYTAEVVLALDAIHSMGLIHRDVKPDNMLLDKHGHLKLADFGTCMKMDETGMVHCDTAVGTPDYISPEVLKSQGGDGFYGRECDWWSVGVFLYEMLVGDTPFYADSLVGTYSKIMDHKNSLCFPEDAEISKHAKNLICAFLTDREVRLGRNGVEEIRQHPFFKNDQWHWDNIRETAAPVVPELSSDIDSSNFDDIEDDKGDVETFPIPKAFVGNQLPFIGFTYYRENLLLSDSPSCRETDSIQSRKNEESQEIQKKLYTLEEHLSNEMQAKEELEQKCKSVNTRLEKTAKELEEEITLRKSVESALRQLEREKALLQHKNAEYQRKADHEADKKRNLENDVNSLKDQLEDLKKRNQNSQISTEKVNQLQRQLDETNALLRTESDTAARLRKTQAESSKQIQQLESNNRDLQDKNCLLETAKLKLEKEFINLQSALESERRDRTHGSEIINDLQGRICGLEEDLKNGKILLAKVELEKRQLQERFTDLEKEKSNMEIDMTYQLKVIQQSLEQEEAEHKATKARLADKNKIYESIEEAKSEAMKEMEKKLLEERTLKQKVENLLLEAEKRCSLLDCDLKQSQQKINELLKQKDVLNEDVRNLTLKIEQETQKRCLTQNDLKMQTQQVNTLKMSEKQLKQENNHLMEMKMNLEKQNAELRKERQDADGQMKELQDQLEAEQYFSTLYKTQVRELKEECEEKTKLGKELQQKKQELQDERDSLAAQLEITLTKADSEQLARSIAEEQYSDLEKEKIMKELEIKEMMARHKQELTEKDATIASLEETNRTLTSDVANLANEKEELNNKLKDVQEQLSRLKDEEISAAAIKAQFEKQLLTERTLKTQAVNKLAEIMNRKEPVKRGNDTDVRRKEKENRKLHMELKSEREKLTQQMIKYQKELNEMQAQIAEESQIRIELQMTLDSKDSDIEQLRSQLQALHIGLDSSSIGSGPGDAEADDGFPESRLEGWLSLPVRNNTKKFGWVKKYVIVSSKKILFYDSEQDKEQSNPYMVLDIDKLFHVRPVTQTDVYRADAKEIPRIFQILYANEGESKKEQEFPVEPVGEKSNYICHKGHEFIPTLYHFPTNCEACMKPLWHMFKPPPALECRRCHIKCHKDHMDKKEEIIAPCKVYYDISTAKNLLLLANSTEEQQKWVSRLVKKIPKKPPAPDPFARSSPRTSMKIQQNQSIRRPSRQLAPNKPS

IC50, ≤ 1000 nM:
Cc1cc(OC2CCNCC2)c(C)c2ccncc12, c1ccc(-c2cc3cnccc3cc2OC2CCNCC2)cc1, Brc1c(OC2CCNCC2)ccc2cnccc12, c1ccc2oc(-c3c(OC4CCNCC4)ccc4cnccc34)cc2c1, Clc1cc2cnccc2c(Cl)c1OC1CCNCC1, COc1ccc(-c2c(OC3CCNCC3)ccc3cnccc23)cc1N, Ic1c(OC2CCNCC2)ccc2cnccc12, Clc1cc(OC2CCNCC2)cc2ccncc12, Clc1cncc2ccc(OC3CCNCC3)cc12, COc1cc(Nc2cc3cc(OC4CCNCC4)ccc3cn2)cc(OC)c1OC, COc1ccc2cc(CN3CCC(Oc4ccc5cnccc5c4)CC3)ccc2c1, CN1CCCC(COc2ccc3cnccc3c2Br)C1 (stereo not drawn), c1cc2c(cc1Nc1cc3cc(OC4CCNCC4)ccc3cn1)OCO2
